For data set [1], the target named is T1, Potassium channel subfamily K member 18 (Homo sapiens, UniProt Q7Z418).
T1 sequence (Q7Z418 whole entry): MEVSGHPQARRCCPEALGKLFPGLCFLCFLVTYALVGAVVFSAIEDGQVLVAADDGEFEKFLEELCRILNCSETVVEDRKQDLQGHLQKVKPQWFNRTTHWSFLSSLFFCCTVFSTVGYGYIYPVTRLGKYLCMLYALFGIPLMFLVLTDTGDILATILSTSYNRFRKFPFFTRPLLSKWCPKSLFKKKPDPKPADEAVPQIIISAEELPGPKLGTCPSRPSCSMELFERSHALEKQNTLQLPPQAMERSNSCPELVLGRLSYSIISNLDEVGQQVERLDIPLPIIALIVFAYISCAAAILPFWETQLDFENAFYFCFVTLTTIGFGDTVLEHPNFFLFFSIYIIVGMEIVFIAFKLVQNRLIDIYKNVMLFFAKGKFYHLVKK
Put plainly: Channel blocking activity at human TRESK channel expressed in HEK293 cells at 100 uM by whole cell patch clamp assay. The data set is classed as cell-based. The note with it: hek293, 100 µM. (In patch-clamp work, channel activity is measured electrically.)

The target in data set [2] is T2, Potassium channel subfamily K member 18 (Homo sapiens) (UniProt Q7Z418).
T2 sequence (whole entry): T1 sequence (Q7Z418 whole entry)
Description: Activation of human TRESK channel expressed in HEK293 cells assessed as induction of channel current at 100 uM by whole cell patch clamp assay relative to control. In kind it is cell-based.

Data set [3] addresses T1, Potassium channel subfamily K member 18. Description: (§1) Activation of human TRESK channel expressed in HEK293 cells assessed as induction of channel current by whole cell patch clamp assay. The data set is classed as cell-based.
The target is the same in data set [4]. Put plainly: (§2) Activation of human TRESK channel relative to control.
Data set [5] is described as follows: Lipophilicity, log D of the compound. The note with it: octanol/water. The data set is classed as physicochemical.
Data set [6] has as its target T2, Potassium channel subfamily K member 18 (Homo sapiens). Described as §1. In kind it is cell-based.
Data set [7] shares this target. The data set is described as §2.
The target of data set [8] is T1, Potassium channel subfamily K member 18. Put plainly: Channel blocking activity at human TRESK channel.

This is an account of results in ChEMBL document CHEMBL3860067, “Investigation of the structure activity relationship of flufenamic acid derivatives at the human TRESK channel K2P18.1” (Bioorg Med Chem Lett, 2016).

Active and inactive are the calls of the source. The rule behind the calls is not given here.

For `O=C(O)c1ccccc1Nc1cccc(-c2ccccc2)c1`, in data set [1], the result was Active.
`FC(F)(F)c1cccc(Nc2ccccc2-c2nnn[nH]2)c1`: the result in data set [1] was Active.
Take `NC(=O)c1ccccc1Nc1cccc(C(F)(F)F)c1`: in data set [1], the result was Active.
Take `CCCCc1cccc(Nc2ccccc2C(=O)O)c1`: in data set [2], the outcome was Active.
As for `O=C(O)c1ccccc1Nc1cccc(C(F)(F)F)c1` [FLUFENAMIC ACID], the EC50 in data set [3] was 474 µM; in data set [4], over 100 µM. In data set [5], this compound registered a logD of 2.2.
For the compound `CC(C)(C)c1cccc(Nc2ccccc2C(=O)O)c1`, the Emax in data set [6] is 354%. Further, the EC50 in data set [3] amounted to 45 µM. In data set [5], this compound had a logD of 3.2.
For the compound `O=C(O)c1ccccc1Nc1cccc(Oc2ccccc2)c1`, in data set [1], the result was Active.
On to `CC(C)(C)c1cccc(Nc2ccccc2-c2nnn[nH]2)c1`, for which the Emax in data set [6] was determined as 102%. For the same compound, the EC50 in data set [3] stood at 18.8 µM. The logD in data set [5] was found to be 2.7.
`c1ccc(-c2nnn[nH]2)c(Nc2cccc3c2CCCC3)c1` yielded an Emax in data set [7] of 75%. This compound registered an EC50 in data set [4] of 6 µM.
As to `CCN(CC)CC(=O)Nc1c(C)cccc1C` [LIDOCAINE], in data set [8], the IC50 was over 100 µM.
Take `O=C(O)c1ccccc1Nc1cccc2c1CCCC2`: in data set [1], the result was Active.
For the compound `Cc1cc(C)c(Nc2ccccc2C(=O)O)c(C)c1`, the outcome in data set [1] was Active.
For the compound `N#Cc1ccccc1Nc1cccc(C(F)(F)F)c1`, in data set [1], the result was Active.

As a reminder, the EC50 is the midpoint of the concentration-response curve. A word on the logD: it is the decadic logarithm of the distribution of all forms, ionised or not, between an organic phase and buffer at a given pH. Read a low logD as a more hydrophilic compound. For orientation: Emax means the greatest response seen or fitted, relative to the assay's reference. As usually defined, the IC50 is the concentration that inhibits the measured activity by half. Low readings indicate inhibition by little substance, high ones a need for much substance.
